Experimental data: patent publication US10611740B2, “Aryl dihydro-2H-benzo[b][1,4]oxazine sulfonamide and related compounds for use as agonists of RORγ and the treatment of disease” (Lycera Corporation, priority 2015, dated 2020)

Assays:
[1] = molecular target: T1, RORγ-LBD (Homo sapiens, UniProt P51449); experiment: RORγ-Ligand Binding Domain (LBD) TR-FRET Assay; type: biochemical;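 as to TR-FRET Assay Max Response: 665/615 nm ratio relative to signal without ursolic acid or compound set at 100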
T1 construct: made in house; host or cells: SF9 cells (baculovirus)
T1 sequence (P51449 269-508 limits assumed): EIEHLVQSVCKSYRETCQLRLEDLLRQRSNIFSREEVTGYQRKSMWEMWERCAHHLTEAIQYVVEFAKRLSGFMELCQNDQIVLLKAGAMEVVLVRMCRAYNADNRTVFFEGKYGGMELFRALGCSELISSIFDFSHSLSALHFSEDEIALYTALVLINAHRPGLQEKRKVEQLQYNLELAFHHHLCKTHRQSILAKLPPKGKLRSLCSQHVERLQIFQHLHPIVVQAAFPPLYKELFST
In short: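 Compounds, diluted in DMSO and then in assay buffer (1% DMSO final), were combined with His-tagged RORγ-LBD lysate at roughly 3 nM final and a 200 nM biotinylated SRC1 LXXLL peptide. Ursolic acid was included at 2 μM final. Coactivator recruitment was detected by TR-FRET.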

[2] = molecular target: T2, Gal4-RORγ-LBD (Homo sapiens, UniProt P51449); experiment: Gal4-RORγ Luciferase Reporter Assay in HEK-293T Cells; type: cell-based; conditions: HEK-293 cells
T2 construct: expressed in transfected cells; host or cells: HEK-293 cells (pcDNA3.1neo plasmid)
T2 sequence (P51449 269-508 limits assumed): T1 sequence (P51449 269-508 limits assumed)
In short: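 HEK-293 cells were transiently co-transfected with Gal4-RORγ-LBD and pGL4.31 Gal4-luciferase, with ursolic acid added at 2 μM final. Compounds were incubated overnight at 37° C. in 0.2% DMSO and luminescence read with One-Glo. Max Response is the upper plateau of a 4-parameter logistic fit, with signal lacking ursolic acid or compound set to 100.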

[3] = luciferase reporter, with 2 μM ursolic acid

Structure (SMILES): CC(C)(C[C@H]1CN(S(=O)(=O)c2cccc(C(F)(F)F)c2)c2cc(-c3cccc(F)c3Cl)ccc2O1)C(=O)O [Compound 32H, (S)-3-(6-(2-chloro-3-fluorophenyl)-4-((3-(trifluoromethyl)phenyl)sulfonyl)-3,4-dihydro-2H-benzo[b][1,4]oxazin-2-yl)-2,2-dimethylpropanoic acid]
- EC50 [1]: < 0.5 µM
- TR-FRET Assay Max Response [1]: **** (The symbol “****” indicates a value greater than 200)
- EC50 [2, 3]: 0.5 to 5 µM
- Gal4-RORγ Assay Max Response [2, 3]: ** (The symbol “**” indicates a value in the range of greater than 90 to 150)

Structure (SMILES): CC(C)(C[C@H]1CN(S(=O)(=O)c2cccc(C(F)(F)F)c2)c2cc(-c3cc(F)ccc3Cl)ccc2O1)C(=O)O [Compound 32I, (S)-3-(6-(2-chloro-5-fluorophenyl)-4-((3-(trifluoromethyl)phenyl)sulfonyl)-3,4-dihydro-2H-benzo[b][1,4]oxazin-2-yl)-2,2-dimethylpropanoic acid]
- EC50 [1]: < 0.5 µM
- TR-FRET Assay Max Response [1]: **** (The symbol “****” indicates a value greater than 200)
- EC50 [2, 3]: 0.5 to 5 µM
- Gal4-RORγ Assay Max Response [2, 3]: *** (The symbol “***” indicates a value in the range of greater than 150 to 200)

Structure (SMILES): CC(C)(C[C@H]1CN(S(=O)(=O)c2cccc(C(F)(F)F)c2)c2cc(-c3cccc(F)c3F)ccc2O1)C(=O)O [Compound 32K, (S)-3-(6-(2,3-difluorophenyl)-4-((3-(trifluoromethyl)-phenyl)sulfonyl)-3,4-dihydro-2H-benzo[b][1,4]oxazin-2-yl)-2,2-dimethylpropanoic acid]
- EC50 [1]: < 0.5 µM
- TR-FRET Assay Max Response [1]: **** (The symbol “****” indicates a value greater than 200)
- EC50 [2, 3]: < 0.5 µM
- Gal4-RORγ Assay Max Response [2, 3]: ** (The symbol “**” indicates a value in the range of greater than 90 to 150)

Structure (SMILES): CC(C)(C[C@H]1CN(S(=O)(=O)c2cccc(C(F)(F)F)c2)c2cc(-c3cc(F)cc(F)c3)ccc2O1)C(=O)O [Compound 32N, (S)-3-(6-(3,5-difluorophenyl)-4-((3-(trifluoromethyl)phenyl)-sulfonyl)-3,4-dihydro-2H-benzo[b][1,4]oxazin-2-yl)-2,2-dimethylpropanoic acid]
- EC50 [1]: < 0.5 µM
- TR-FRET Assay Max Response [1]: *** (The symbol “***” indicates a value in the range of greater than 150 to 200)
- EC50 [2, 3]: < 0.5 µM
- Gal4-RORγ Assay Max Response [2, 3]: ** (The symbol “**” indicates a value in the range of greater than 90 to 150)

Structure (SMILES): CC(C)(C[C@H]1CN(S(=O)(=O)c2cccc(C(F)(F)F)c2)c2cc(-c3cccc(C(F)(F)F)c3)ccc2O1)C(=O)O [Compound 32O, (S)-2,2-dimethyl-3-(6-(3-(trifluoromethyl)phenyl)-4-((3-(trifluoromethyl)phenyl)sulfonyl)-3,4-dihydro-2H-benzo[b][1,4]oxazin-2-yl)propanoic acid]
- EC50 [1]: < 0.5 µM
- TR-FRET Assay Max Response [1]: **** (The symbol “****” indicates a value greater than 200)
- EC50 [2, 3]: < 0.5 µM
- Gal4-RORγ Assay Max Response [2, 3]: * (The symbol “*” indicates a value in the range of 25 to 90)

Structure (SMILES): CC(C)(CC[C@H]1CN(S(=O)(=O)c2cccc(C(F)(F)F)c2)c2cc(-c3cccc(C(F)(F)F)n3)ccc2O1)C(=O)O [Compound 32P, (S)-2,2-dimethyl-4-(4-((3-(trifluoromethyl)phenyl)sulfonyl)-6-(6-(trifluoromethyl)pyridin-2-yl)-3,4-dihydro-2H-benzo[b][1,4]oxazin-2-yl)butanoic acid]
- EC50 [1]: < 0.5 µM
- TR-FRET Assay Max Response [1]: *** (The symbol “***” indicates a value in the range of greater than 150 to 200)
- EC50 [2, 3]: < 0.5 µM
- Gal4-RORγ Assay Max Response [2, 3]: ** (The symbol “**” indicates a value in the range of greater than 90 to 150)

Structure (SMILES): COc1cc(OC)cc(-c2ccc3c(c2)N(S(=O)(=O)c2cccc(C(F)(F)F)c2)C[C@H](CC(C)(C)C(=O)O)O3)c1 [Compound 32Q, (S)-3-(6-(3,5-dimethoxyphenyl)-4-((3-(trifluoromethyl)phenyl)-sulfonyl)-3,4-dihydro-2H-benzo[b][1,4]oxazin-2-yl)-2,2-dimethylpropanoic acid]
- EC50 [1]: < 0.5 µM
- TR-FRET Assay Max Response [1]: **** (The symbol “****” indicates a value greater than 200)
- EC50 [2, 3]: < 0.5 µM
- Gal4-RORγ Assay Max Response [2, 3]: ** (The symbol “**” indicates a value in the range of greater than 90 to 150)

Structure (SMILES): CC(C)(C[C@H]1CN(S(=O)(=O)c2cccc(C(F)(F)F)c2)c2cc(-c3cc(Cl)cc(OC(F)F)c3)ccc2O1)C(=O)O [Compound 32R, (S)-3-(6-(3-chloro-5-(difluoro-methoxy)phenyl)-4-((3-(trifluoro-methyl)phenyl)sulfonyl)-3,4-dihydro-2H-benzo[b][1,4]oxazin-2-yl)-2,2-dimethylpropanoic acid]
- EC50 [1]: < 0.5 µM
- TR-FRET Assay Max Response [1]: *** (The symbol “***” indicates a value in the range of greater than 150 to 200)
- EC50 [2, 3]: < 0.5 µM
- Gal4-RORγ Assay Max Response [2, 3]: ** (The symbol “**” indicates a value in the range of greater than 90 to 150)

Structure (SMILES): COc1cc(S(=O)(=O)N2C[C@H](CCC(C)(C)C(=O)O)Oc3ccc(-c4cc(F)cc(OC)c4F)cc32)ccc1F [Compound 32S, (S)-4-(6-(2,5-difluoro-3-methoxyphenyl)-4-((4-fluoro-3-methoxyphenyl)sulfonyl)-3,4-dihydro-2H-benzo[b][1,4]oxazin-2-yl)-2,2-dimethylbutanoic acid]
- EC50 [1]: < 0.5 µM
- TR-FRET Assay Max Response [1]: *** (The symbol “***” indicates a value in the range of greater than 150 to 200)
- EC50 ([2]; 2 μM ursolic acid): < 0.5 µM
- Gal4-RORγ Assay Max Response ([2]; 2 μM ursolic acid): ** (The symbol “**” indicates a value in the range of greater than 90 to 150)

Structure (SMILES): CC(C)(CC[C@H]1CN(S(=O)(=O)c2cccc(OC(F)F)c2)c2cc(-c3cc(F)ccc3F)ccc2O1)C(=O)O [Compound 32T, (S)-4-(4-((3-(difluoro-methoxy)phenyl)sulfonyl)-6-(2,5-difluorophenyl)-3,4-dihydro-2H-benzo[b][1,4]oxazin-2-yl)-2,2-dimethylbutanoic acid]
- EC50 [1]: < 0.5 µM
- TR-FRET Assay Max Response [1]: *** (The symbol “***” indicates a value in the range of greater than 150 to 200)
- EC50 ([2]; 2 μM ursolic acid): < 0.5 µM
- Gal4-RORγ Assay Max Response ([2]; 2 μM ursolic acid): ** (The symbol “**” indicates a value in the range of greater than 90 to 150)

Structure (SMILES): COc1cccc(-c2ccc3c(c2)N(S(=O)(=O)c2cccc(C(F)(F)F)c2)C[C@H](CC(C)(C)C(=O)O)O3)c1OC [Compound 32V, (S)-3-(6-(2,3-dimethoxyphenyl)-4-((3-(trifluoromethyl)phenyl)-sulfonyl)-3,4-dihydro-2H-benzo[b][1,4]oxazin-2-yl)-2,2-dimethylpropanoic acid]
- EC50 [1]: < 0.5 µM
- TR-FRET Assay Max Response [1]: *** (The symbol “***” indicates a value in the range of greater than 150 to 200)
- EC50 ([2]; 2 μM ursolic acid): < 0.5 µM
- Gal4-RORγ Assay Max Response ([2]; 2 μM ursolic acid): ** (The symbol “**” indicates a value in the range of greater than 90 to 150)

Structure (SMILES): CC(C)(C[C@H]1CN(S(=O)(=O)c2cccc(C(F)(F)F)c2)c2cc(-c3cccc(Cl)c3)ccc2O1)C(=O)O [Compound 32W, (S)-3-(6-(3-chlorophenyl)-4-((3-(trifluoromethyl)phenyl)sulfonyl)-3,4-dihydro-2H-benzo[b][1,4]-oxazin-2-yl)-2,2-dimethyl-propanoic acid]
- EC50 [1]: < 0.5 µM
- TR-FRET Assay Max Response [1]: *** (The symbol “***” indicates a value in the range of greater than 150 to 200)
- EC50 ([2]; 2 μM ursolic acid): < 0.5 µM
- Gal4-RORγ Assay Max Response ([2]; 2 μM ursolic acid): ** (The symbol “**” indicates a value in the range of greater than 90 to 150)

Structure (SMILES): CC(C)(C[C@H]1CN(S(=O)(=O)c2cccc(C(F)(F)F)c2)c2cc(-c3cc(F)cc(F)c3F)ccc2O1)C(=O)O [Compound 32X, (S)-2,2-dimethyl-3-(4-((3-(trifluoromethyl)phenyl)sulfonyl)-6-(2,3,5-trifluorophenyl)-3,4-dihydro-2H-benzo[b][1,4]oxazin-2-yl)propanoic acid]
- EC50 [1]: < 0.5 µM
- TR-FRET Assay Max Response [1]: *** (The symbol “***” indicates a value in the range of greater than 150 to 200)
- EC50 ([2]; 2 μM ursolic acid): < 0.5 µM
- Gal4-RORγ Assay Max Response ([2]; 2 μM ursolic acid): ** (The symbol “**” indicates a value in the range of greater than 90 to 150)

Structure (SMILES): CC(C)(C[C@H]1CN(S(=O)(=O)c2cccc(C(F)(F)F)c2)c2cc(-c3cc(F)cc(Cl)c3)ccc2O1)C(=O)O [Compound 32Y, (S)-3-(6-(3-chloro-5-fluoro-phenyl)-4-((3-(trifluoromethyl)-phenyl)sulfonyl)-3,4-dihydro-2H-benzo[b][1,4]oxazin-2-yl)-2,2-dimethylpropanoic acid]
- EC50 [1]: < 0.5 µM
- TR-FRET Assay Max Response [1]: *** (The symbol “***” indicates a value in the range of greater than 150 to 200)
- EC50 ([2]; 2 μM ursolic acid): < 0.5 µM
- Gal4-RORγ Assay Max Response ([2]; 2 μM ursolic acid): ** (The symbol “**” indicates a value in the range of greater than 90 to 150)

Structure (SMILES): CC(C)(C[C@H]1CN(S(=O)(=O)c2cccc(C(F)(F)F)c2)c2cc(-c3ccccc3OC(F)(F)F)ccc2O1)C(=O)O [Compound 32Z, (S)-2,2-dimethyl-3-(6-(2-(trifluoromethoxy)phenyl)-4-((3-(trifluoromethyl)phenyl)sulfonyl)-3,4-dihydro-2H-benzo[b][1,4]-oxazin-2-yl)propanoic acid]
- EC50 [1]: < 0.5 µM
- TR-FRET Assay Max Response [1]: *** (The symbol “***” indicates a value in the range of greater than 150 to 200)
- EC50 ([2]; 2 μM ursolic acid): < 0.5 µM
- Gal4-RORγ Assay Max Response ([2]; 2 μM ursolic acid): ** (The symbol “**” indicates a value in the range of greater than 90 to 150)
